# Results reported in patent US9914735B2, “Heteroaryl Syk inhibitors” (Boehringer Ingelheim International GmbH, priority 2014, dated 2018).
# Read-outs that look alike come from different tables or passages of the source.
# What was measured:
# [1] = target: Recombinant human Syk (amino acids 342-635), GST-Syk kinase fusion protein (Homo sapiens (Human), UniProt P43405); assay: Syk kinase test (Kinase Glo luminescence); type: biochemical
# [2] = target: Recombinant human Aurora B (amino acids 1-344) (Homo sapiens (Human), UniProt Q96GD4); assay: Aurora B kinase test (ADP Glo luminescence); type: biochemical
# Chain of Recombinant human Aurora B (amino acids 1-344) (Q96GD4 whole entry, the tested form may be a part): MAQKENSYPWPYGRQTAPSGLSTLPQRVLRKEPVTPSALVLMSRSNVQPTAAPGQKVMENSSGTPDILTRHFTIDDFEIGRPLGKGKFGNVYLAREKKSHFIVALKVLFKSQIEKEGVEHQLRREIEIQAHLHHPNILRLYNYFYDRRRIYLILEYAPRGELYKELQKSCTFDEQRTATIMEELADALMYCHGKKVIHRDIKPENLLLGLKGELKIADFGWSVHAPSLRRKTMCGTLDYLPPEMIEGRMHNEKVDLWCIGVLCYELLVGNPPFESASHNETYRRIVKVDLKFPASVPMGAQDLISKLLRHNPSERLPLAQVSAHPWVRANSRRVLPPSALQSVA
# FLT3 = FLT3 (Homo sapiens (Human), UniProt P36888); assay: FLT3 kinase test (Z'-LYTE); type: biochemical
# Chain of FLT3 (P36888 27-993): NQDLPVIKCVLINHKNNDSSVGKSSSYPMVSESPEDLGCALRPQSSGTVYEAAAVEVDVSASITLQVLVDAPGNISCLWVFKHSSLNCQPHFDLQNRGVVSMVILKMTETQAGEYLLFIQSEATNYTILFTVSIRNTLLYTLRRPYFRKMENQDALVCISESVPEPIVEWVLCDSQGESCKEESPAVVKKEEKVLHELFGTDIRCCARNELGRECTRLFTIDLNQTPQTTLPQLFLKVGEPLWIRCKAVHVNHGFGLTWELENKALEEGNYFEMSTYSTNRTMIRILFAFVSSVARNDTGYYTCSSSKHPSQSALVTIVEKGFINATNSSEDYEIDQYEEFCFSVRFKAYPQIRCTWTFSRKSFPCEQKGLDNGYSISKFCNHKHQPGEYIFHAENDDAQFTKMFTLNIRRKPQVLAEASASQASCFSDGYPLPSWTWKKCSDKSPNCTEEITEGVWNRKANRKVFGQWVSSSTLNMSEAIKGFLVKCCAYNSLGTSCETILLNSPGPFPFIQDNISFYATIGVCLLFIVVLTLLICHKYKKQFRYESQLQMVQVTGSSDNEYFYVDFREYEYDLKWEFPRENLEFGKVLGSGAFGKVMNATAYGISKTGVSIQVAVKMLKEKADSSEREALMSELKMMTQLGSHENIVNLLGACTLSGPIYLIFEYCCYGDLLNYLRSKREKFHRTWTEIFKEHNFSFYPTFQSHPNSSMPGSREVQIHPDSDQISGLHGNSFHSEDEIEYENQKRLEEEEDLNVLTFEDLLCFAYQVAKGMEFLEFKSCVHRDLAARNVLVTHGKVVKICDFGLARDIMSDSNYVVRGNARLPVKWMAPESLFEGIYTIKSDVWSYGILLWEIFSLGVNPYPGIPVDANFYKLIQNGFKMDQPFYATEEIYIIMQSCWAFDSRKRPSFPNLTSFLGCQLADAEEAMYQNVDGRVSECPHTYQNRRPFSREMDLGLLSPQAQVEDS
# How it was run: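 Z'-LYTE FRET format; kinase reaction started with ATP, run 1 h at room temperature, then 1 h development before stop reagent. Controls without compound, without kinase, and phosphopeptide as 100% phosphorylation reference; values reported in M.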
# Human GSK3beta = Human GSK3beta (Homo sapiens (Human), UniProt P49841); assay: GSK 3beta kinase test (Z'-LYTE); type: biochemical; details: read-out: IC50 in μM (GSK3beta-Inhibition)
# Chain of Human GSK3beta (P49841 whole entry): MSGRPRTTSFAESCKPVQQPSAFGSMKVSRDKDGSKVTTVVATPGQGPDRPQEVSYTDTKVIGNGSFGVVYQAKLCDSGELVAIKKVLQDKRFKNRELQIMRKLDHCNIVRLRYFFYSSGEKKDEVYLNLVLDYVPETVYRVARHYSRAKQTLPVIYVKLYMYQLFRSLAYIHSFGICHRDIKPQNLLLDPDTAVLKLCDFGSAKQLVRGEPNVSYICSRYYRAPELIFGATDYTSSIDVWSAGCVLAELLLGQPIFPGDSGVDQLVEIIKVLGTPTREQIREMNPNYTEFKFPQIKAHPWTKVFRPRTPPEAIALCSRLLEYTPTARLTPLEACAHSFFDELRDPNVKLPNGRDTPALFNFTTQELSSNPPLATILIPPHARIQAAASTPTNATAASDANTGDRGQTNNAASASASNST
# Method: Human GSK3beta (expressed and prified from SF21 cells) is obtained from the University Dundee/Scotland (Dr. James Hastie—Dept. of Biochemistry) in 50 mM Tris (pH7.5); 150 mM NaCl; 0.1 mM EGTA, 270 mM Succrose, 0.1% β-mercaptoethanol, 1 mM benzamidine, 0.2 mM PMSF; sequence see below). The enzyme is diluted to 3.56 μM (168 μg/ml) in enzyme dilution buffer and 6 μl aliquots are stored at −80° C.
# The activity of GSK3 kinase protein is measured using the Z′-LYTETM assay technology from Invitrogen (# PV3324).
# The assay is performed in 384 black plates from Corning (#3676) in a final volume of 10 μl by adding 5 μl of kinase peptide mix and 2.5 μl of compound dilution. The reaction is started by addition of 2.5 μl of the 4×ATP solution.
# Positive controls are reaction mixtures containing no test compound; negative controls (blanks) are reaction mixtures containing no ATP. As a further control, the phosphopeptide solution is added to wells without kinase and without ATP (=100% phosphorylation control).
# The non inhibited kinase reaction will result in a phosphorylation corresponding to 20%-30% of the phosphorylation control.
# The reaction is performed 1 h at room temperature. After 1h 5 μl of the development solution is added. After a further incubation for 1 h at room temperature 5 μl of the stop reagent is added. Finally the plates are read on a Flex Station II 384 (Molecular Devices).
# The output text file is evaluated in an “MS-Excel—VB-Makro” and “GraphPadPrism” (Version 5) (GraphPad Software Inc.) is used to calculate the results. Data for the inhibition of GSK3beta are reported in M. data for the inhibition of the protease are reported in % CTL.
# [3] = Human liver microsomal stability test; type: in vitro ADME; details: human liver microsomes; Qh = liver blood flow
# [4] = Table 1, read-out: SYK-inhibition IC50-value
# [5] = read-out: IC50 in μM (SYK-Inhibition)
# [6] = Table 1, read-out: AURB-inhibition IC50-value
# [7] = read-out: IC50 in μM (AURB-Inhibition)
# [8] = Table 1, read-out: FLT3-inhibition IC50-value
# [9] = read-out: IC50 in μM (FLT3-Inhibition)
"IC50 [1, 4] [µM]","IC50 [1, 5] [µM]","IC50 [2, 6] [µM]","IC50 [2, 7] [µM]",IC50 (FLT3; [8]) [µM],IC50 (FLT3; [9]) [µM],IC50 (Human GSK3beta) [µM],microsomal stability Cl [% Qh] [3] [% Qh],SMILES
0.0152,0.0152,> 50,> 50,1.68,1.68,> 10,34,"C[C@@H](Oc1nc(-c2ccc(N3CCN(C)CC3)cc2)cc2nn(C)cc12)[C@H]1CNC(=O)C1 [Example 67, (4R)-4-[(1R)-1-[2-methyl-6-[4-(4-methylpiperazin-1-yl)phenyl]pyrazolo[4,3-c]pyridin-4-yl]oxyethyl]-pyrrolidin-2-one]"
0.0526,0.0526,> 50,> 50,19.6,19.6,1.45,<23,"C[C@@H](Oc1nc(-c2ccc3cnn(C)c3c2)cc2nn(C)cc12)[C@H]1CNC(=O)C1 [Example 72, (4R)-4-[(1R)-1-[2-methyl-6-(1-methylindazol-6-yl)pyrazolo[4,3-c]pyridin-4-yl]oxyethyl]pyrrolidin-2-one]"

# The next lines start with the compound.
SMILES,"IC50 [1, 4] [µM]","IC50 [1, 5] [µM]","IC50 [2, 6] [µM]","IC50 [2, 7] [µM]",IC50 (FLT3; [8]) [µM],IC50 (FLT3; [9]) [µM],IC50 (Human GSK3beta) [µM],microsomal stability Cl [% Qh] [3] [% Qh]
"COc1ccc(-c2cc3nn(C)cc3c(O[C@H](C)[C@H]3CNC(=O)C3)n2)cn1 [Example 59, (4R)-4-[(1R)-1-[6-(6-methoxy-3-pyridyl)-2-methyl-pyrazolo-[4,3-c]pyridin-4-yl]oxyethyl]-pyrrolidin-2-one]",0.144,0.144,> 50,> 50,46.2,46.2,> 10,<23
"C[C@@H](Oc1nc(-c2ccc(C(F)(F)F)nc2)cc2nn(C)cc12)[C@H]1CNC(=O)C1 [Example 61, (4R)-4-[(1R)-1-[2-methyl-6-[6-(trifluoromethyl)-3-pyridyl]pyrazolo[4,3-c]pyridin-4-yl]oxyethyl]pyrrolidin-2-one]",0.475,0.475,> 50,> 50,48.1,48.1,> 10,<23
"C[C@@H](Oc1nc(-c2ccc3c(cnn3C)c2)cc2nn(C)cc12)[C@H]1CNC(=O)C1 [Example 62, (4R)-4-[(1R)-1-[2-methyl-6-(1-methylindazol-5-yl)pyrazolo[4,3-c]pyridin-4-yl]oxyethyl]pyrrolidin-2-one]",0.0193,0.0193,> 50,> 50,4.78,4.78,> 10,<23
"COc1cc(-c2cc3nn(C)cc3c(O[C@H](C)[C@H]3CNC(=O)C3)n2)ccc1OC(C)C [Example 81, (4R)-4-[(1R)-1-[6-(4-isopropoxy-3-methoxy-phenyl)-2-methyl-pyrazolo-[4,3-c]pyridin-4-yl]oxyethyl]-pyrrolidin-2-one]",0.024,0.024,48.4,48.4,5.24,5.24,> 10,<23
